Assay results as given in patent US7368100B2, “Backbone-substituted bifunctional DOTA ligands, complexes and compositions thereof, and methods of using same” (The United States of America, represented by the Secretary, …, priority 2002, dated 2008).

Tests used:
[1] = system: human colon carcinoma (LS-174T) xenografts; conditions: mouse, in vivo
Protocol: The radioimmunoconjugates (RICs) were compared in vivo using athymic mice bearing human colon adenocarcinoma xenografts. Female athymic mice (nu/nu), obtained from Charles River Laboratories (Wilmington, Mass.) at 4-6 weeks of age, were injected subcutaneously on the flank with 2×10^6 LS-174T cells in 0.2 mL of RPMI-1640. At approximately 10-14 days, when the tumors measured between 0.4-0.6 cm in diameter, the mice received the ^177Lu-labeled HERCEPTIN. The mice were injected with each RIC (about 5 μCi of each) intravenously (i.v.) via the tail vein. Mice (n=5) were sacrificed by exsanguination at 24, 48, 72, 96 and 168 h.
Blood, tumor and the major organs were collected and wet-weighed, and the radioactivity was counted in a γ-counter (Minaxi-γ, Packard, Downers Grove, Ill.). The percent injected dose per gram (% ID/g) was determined for each tissue as well as the radiolocalization indices (% ID/g in tumor divided by the % ID/g in the normal tissue). The mean and average deviation for each tissue was also calculated.
Following injection of the radioimmunoconjugates (n=5), blood samples were collected at various time points via the tail vein in heparinized capillary tubes (10 μL). The blood was transferred to a tube, and the radioactivity was measured in a γ-counter. The percent injected dose per mL of blood was calculated for each of the samples.
If the radioactivity in the tissues is due to specific accumulation, then the tissue-to-blood ratio would increase as a function of time. If the radioactivity in the tissues is a result of that radioactivity present in the plasma compartment, then the tissue-to-blood ratio would remain constant with time.

[2] = system: HER2 positive cells (N87); assay: Live-cell radioimmunoassay (immunoreactivity) of radiolabeled HERCEPTIN preparations; type: binding, human; conditions: for HER2 + (percent binding): N87 cells, overnight 4° C., average of the serial dilutions; for HER2 − (percent binding): column HER2 −, not explained, text describes incubation with excess (10 μg) unlabeled HERCEPTIN
Protocol: The human colon carcinoma (LS-174T) cell line was grown in supplemented Eagle's minimum essential medium as previously described (see Brechbiel et al., Inorg Chem., 25, 2772 (1986); and Lagunas-Solar et al., Appl. Radiat. Isot., 38, 129-137 (1987)). The human gastric carcinoma cell line (N87) was kindly provided by Dr. Raya Mandler, Metabolism Branch, NCI. The N87 cell line (Jurcic et al., Advances in Pharmacology, Vol. 33, (J. T. August, M. W. Anders, F. Murad, J. T. Coyle Eds.) pp 287-314, Academic Press, Inc., New York, (1995)), which expresses high levels of HER2, was maintained in RPMI 1640 (Quality Biologicals, Gaithersburg, Md.) medium, supplemented with 10% fetal bovine serum (FBS) (Gemini Bio-Products, Woodland, Calif.) and 0.01 mM non-essential amino acids (Quality Biologicals, Gaithersburg, Md.).
The immunoreactivity of the RIC was assessed in a live-cell radioimmunoassay (RIA) as detailed elsewhere (Garmestani et al., Nuci. Med. Biol., 29, 599-606 (2002)). HER2 positive cells (N87) were harvested, pelleted at 1,000×g (Allegra 6KR; Beckman Coulter, Palo Alto, Calif.) and resuspended in PBS (pH 7.2) containing 1% BSA and were added to 12×75 […] polypropylene tubes (1×10^6 cells in 100 μL). Serial dilutions of the radiolabeled HERCEPTIN preparations (about 200,000 cpm -12,500 cpm in 50 μL) were then added in duplicate and gently shaken. Following an overnight incubation at 4° C., the cells were washed once with 4 mL of 1% BSA in PBS and pelleted at 1,000×g for 5 min, and the supernatant was decanted. The pelleted cells were then counted in a γ-scintillation counter (Packard), and the percent binding was calculated for each dilution. The values presented in Table 1 are an average of the serial dilutions. To confirm the specific reactivity of the RIC, cells were incubated with about 200,000 cpm of the RIC along with an excess (10 μg) of unlabeled HERCEPTIN.

[3] = system: leukemia cell line; conditions: directed against a leukemia cell line; Nikula et al. 1999; cited from earlier work

Substance	liver % ID/g, comparison among RIC [1]	spleen-to-blood ratios [1]	HER2 + (percent binding) [2] [%]	HER2 − (percent binding) [2] [%]	cell killing ability [3]	femur-to-blood ratios, course over time [1]
1B4M-DOTA (7)	lowest liver % ID/g values throughout the entire study period	less than 1	47.2	6.7	–	–
Bismuth-labeled HuM195	–	–	–	–	specific and potent cell killing ability	–
CHX-DOTA (14)	–	less than 1	45.8	4.3	–	higher overall than the other RIC
